In PubChem BioAssay (NCI):
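How tested: cells in 96-well plates exposed to compound for 48 hours at five concentrations. The concentration for full growth arrest is given as TGI.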

Assays:
Experiment in all cases: NCI tumour cell line growth inhibition, 48 h
786-0 renal = system: 786-0 renal
A498 renal = system: A498 renal
A549 NSCLC = system: A549 NSCLC
ACHN renal = system: ACHN renal
BT-549 breast = system: BT-549 breast
CAKI-1 renal = system: CAKI-1 renal
CCRF-CEM leukemia = system: CCRF-CEM leukemia
COLO 205 colon = system: COLO 205 colon
DU-145 prostate = system: DU-145 prostate
HCC-2998 colon = system: HCC-2998 colon
HCT-116 colon = system: HCT-116 colon
HCT-15 colon = system: HCT-15 colon
HL-60(TB) leukemia = system: HL-60(TB) leukemia
HOP-62 NSCLC = system: HOP-62 NSCLC
HS 578T breast = system: HS 578T breast
HT29 colon = system: HT29 colon
IGROV1 ovarian = system: IGROV1 ovarian
K-562 leukemia = system: K-562 leukemia
LOX IMVI melanoma = system: LOX IMVI melanoma
M14 melanoma = system: M14 melanoma
MALME-3M melanoma = system: MALME-3M melanoma
MCF7 breast = system: MCF7 breast
MDA-MB-231 breast = system: MDA-MB-231 breast
MDA-MB-435 = system: MDA-MB-435
MDA-N = system: MDA-N
MOLT-4 leukemia = system: MOLT-4 leukemia
NCI-H226 lung = system: NCI-H226 lung
NCI-H23 lung = system: NCI-H23 lung
NCI-H460 lung = system: NCI-H460 lung
NCI-H522 lung = system: NCI-H522 lung
NCI/ADR-RES ovarian = system: NCI/ADR-RES ovarian
OVCAR-3 ovarian = system: OVCAR-3 ovarian
OVCAR-5 ovarian = system: OVCAR-5 ovarian
OVCAR-8 ovarian = system: OVCAR-8 ovarian
PC-3 prostate = system: PC-3 prostate
RXF 393 renal = system: RXF 393 renal
SF-268 CNS = system: SF-268 CNS
SF-295 CNS = system: SF-295 CNS
SF-539 CNS = system: SF-539 CNS
SK-MEL-2 melanoma = system: SK-MEL-2 melanoma
SK-MEL-28 melanoma = system: SK-MEL-28 melanoma
SK-MEL-5 melanoma = system: SK-MEL-5 melanoma
SK-OV-3 ovarian = system: SK-OV-3 ovarian
SN12C renal = system: SN12C renal
SNB-19 CNS = system: SNB-19 CNS
SNB-75 CNS = system: SNB-75 CNS
SW-620 colon = system: SW-620 colon
T-47D breast = system: T-47D breast
TK-10 renal = system: TK-10 renal
U251 CNS = system: U251 CNS
UACC-257 melanoma = system: UACC-257 melanoma
UACC-62 melanoma = system: UACC-62 melanoma
UO-31 renal = system: UO-31 renal
EKVX NSCLC = system: EKVX NSCLC
HOP-92 NSCLC = system: HOP-92 NSCLC
KM12 colon = system: KM12 colon
OVCAR-4 ovarian = system: OVCAR-4 ovarian
RPMI-8226 leukemia = system: RPMI-8226 leukemia
SR leukemia = system: SR leukemia

With `c1ccc([P+](c2ccccc2)(c2ccccc2)C2c3ccccc3-c3ccccc32)cc1` the TGI (786-0 renal) was 10.9 µM, the TGI (A498 renal) was 4.51 µM and the TGI (A549 NSCLC) was 14.3 µM. It also gave a TGI (ACHN renal) of 7.79 µM, a TGI (BT-549 breast) of 7.44 µM and a TGI (CAKI-1 renal) of 69.1 µM. The TGI (CCRF-CEM leukemia) was 7.61 µM, the TGI (COLO 205 colon) was 2.63 µM and the TGI (DU-145 prostate) was 60.6 µM. For the same compound, the TGI (HCC-2998 colon) was 9.62 µM, the TGI (HCT-116 colon) was 2.39 µM and the TGI (HCT-15 colon) was 11 µM. It also gave a TGI (HL-60(TB) leukemia) of 3.92 µM, a TGI (HOP-62 NSCLC) of 4.7 µM and a TGI (HS 578T breast) of 5.75 µM. The TGI (HT29 colon) was 4.04 µM, the TGI (IGROV1 ovarian) was 13.6 µM and the TGI (K-562 leukemia) was > 100 µM. The TGI (LOX IMVI melanoma) was 4.96 µM, the TGI (M14 melanoma) was 11.3 µM and the TGI (MALME-3M melanoma) was 15.1 µM. It also gave a TGI (MCF7 breast) of 10 µM, a TGI (MDA-MB-231 breast) of 6.84 µM and a TGI (MDA-MB-435) of 3.18 µM. The TGI (MDA-N) was 7.84 µM, the TGI (MOLT-4 leukemia) was 7.12 µM and the TGI (NCI-H226 lung) was 5.94 µM. The TGI (NCI-H23 lung) was 5.38 µM, the TGI (NCI-H460 lung) was 10.2 µM and the TGI (NCI-H522 lung) was 6.06 µM. The TGI (NCI/ADR-RES ovarian) was 41.9 µM, the TGI (OVCAR-3 ovarian) was 5.68 µM and the TGI (OVCAR-5 ovarian) was 42 µM. For the same compound, the TGI (OVCAR-8 ovarian) was 10.1 µM, the TGI (PC-3 prostate) was 5.46 µM and the TGI (RXF 393 renal) was 5.06 µM. The TGI (SF-268 CNS) was 9.37 µM, the TGI (SF-295 CNS) was 5.35 µM and the TGI (SF-539 CNS) was 6.98 µM. For the same compound, the TGI (SK-MEL-2 melanoma) was 3.87 µM, the TGI (SK-MEL-28 melanoma) was 8.03 µM and the TGI (SK-MEL-5 melanoma) was 3.82 µM. It also gave a TGI (SK-OV-3 ovarian) of 4.33 µM, a TGI (SN12C renal) of 7.29 µM and a TGI (SNB-19 CNS) of 10.3 µM. The TGI (SNB-75 CNS) was 7.06 µM, the TGI (SW-620 colon) was 16.2 µM and the TGI (T-47D breast) was 12.5 µM. It also gave a TGI (TK-10 renal) of 9.21 µM, a TGI (U251 CNS) of 4.12 µM and a TGI (UACC-257 melanoma) of 5.91 µM. For the same compound, the TGI (UACC-62 melanoma) was 5.02 µM and the TGI (UO-31 renal) was 8.03 µM.
In the case of `O=C1C(S(=O)(=O)c2ccccc2)=C(CS(=O)(=O)c2ccccc2)[C@@H](OCc2ccccc2)[C@@H]1OCc1ccccc1`, the TGI (786-0 renal) was > 100 µM, the TGI (A498 renal) was 57.3 µM and the TGI (A549 NSCLC) was > 100 µM. For the same compound, the TGI (ACHN renal) was > 100 µM, the TGI (BT-549 breast) was 27 µM and the TGI (CAKI-1 renal) was > 100 µM. For the same compound, the TGI (CCRF-CEM leukemia) was 42.7 µM, the TGI (COLO 205 colon) was 61.3 µM and the TGI (DU-145 prostate) was > 100 µM. For the same compound, the TGI (EKVX NSCLC) was > 100 µM, the TGI (HCC-2998 colon) was 36.3 µM and the TGI (HCT-116 colon) was 27 µM. The TGI (HCT-15 colon) was 44 µM, the TGI (HL-60(TB) leukemia) was 43.9 µM and the TGI (HOP-62 NSCLC) was 53.2 µM. It also gave a TGI (HOP-92 NSCLC) of 32.7 µM, a TGI (HS 578T breast) of 67 µM and a TGI (HT29 colon) of 26.3 µM. The TGI (IGROV1 ovarian) was 33.8 µM, the TGI (K-562 leukemia) was 35.8 µM and the TGI (KM12 colon) was 27.4 µM. For the same compound, the TGI (LOX IMVI melanoma) was 32.9 µM, the TGI (M14 melanoma) was 32.1 µM and the TGI (MALME-3M melanoma) was 36.1 µM. The TGI (MCF7 breast) was > 100 µM, the TGI (MDA-MB-231 breast) was 60 µM and the TGI (MDA-MB-435) was 92.7 µM. It also gave a TGI (MDA-N) of 88.7 µM, a TGI (MOLT-4 leukemia) of 46.7 µM and a TGI (NCI-H226 lung) of 37.3 µM. It also gave a TGI (NCI-H23 lung) of 36.3 µM, a TGI (NCI-H460 lung) of 50.5 µM and a TGI (NCI-H522 lung) of 35.9 µM. For the same compound, the TGI (NCI/ADR-RES ovarian) was 54.4 µM, the TGI (OVCAR-3 ovarian) was 27.5 µM and the TGI (OVCAR-4 ovarian) was 57.8 µM. For the same compound, the TGI (OVCAR-5 ovarian) was 75.4 µM, the TGI (OVCAR-8 ovarian) was 39.8 µM and the TGI (PC-3 prostate) was 85.8 µM. The TGI (RPMI-8226 leukemia) was 36.1 µM, the TGI (RXF 393 renal) was 27.8 µM and the TGI (SF-268 CNS) was > 100 µM. It also gave a TGI (SF-295 CNS) of 40.4 µM, a TGI (SF-539 CNS) of 40.6 µM and a TGI (SK-MEL-2 melanoma) of 33.5 µM. The TGI (SK-MEL-28 melanoma) was 35.9 µM, the TGI (SK-MEL-5 melanoma) was 40.2 µM and the TGI (SK-OV-3 ovarian) was > 100 µM. For the same compound, the TGI (SN12C renal) was 76.4 µM, the TGI (SNB-19 CNS) was > 100 µM and the TGI (SNB-75 CNS) was > 100 µM. The TGI (SR leukemia) was 33.5 µM, the TGI (SW-620 colon) was 36.4 µM and the TGI (T-47D breast) was > 100 µM. The TGI (TK-10 renal) was > 100 µM, the TGI (U251 CNS) was 53.3 µM and the TGI (UACC-257 melanoma) was 66.3 µM. It also gave a TGI (UACC-62 melanoma) of 40 µM and a TGI (UO-31 renal) of 37.1 µM.
`Cc1c(F)c(NC(=O)CN(C)C)c2c(=O)cc(-c3ccc(NC(=O)CN(C)C)c(F)c3)oc2c1F` gave a TGI (786-0 renal) of 31.1 µM, a TGI (A498 renal) of 3.64 µM and a TGI (A549 NSCLC) of 35.6 µM. For the same compound, the TGI (ACHN renal) was 29.6 µM, the TGI (BT-549 breast) was 35.3 µM and the TGI (CAKI-1 renal) was 23.1 µM. For the same compound, the TGI (CCRF-CEM leukemia) was 57 µM, the TGI (COLO 205 colon) was 38 µM and the TGI (DU-145 prostate) was 26.5 µM. The TGI (HCC-2998 colon) was 19 µM, the TGI (HCT-116 colon) was 29.3 µM and the TGI (HCT-15 colon) was 33.7 µM. The TGI (HL-60(TB) leukemia) was 35.9 µM, the TGI (HOP-62 NSCLC) was 32.5 µM and the TGI (HS 578T breast) was 56.5 µM. For the same compound, the TGI (HT29 colon) was 33.8 µM, the TGI (IGROV1 ovarian) was 32.1 µM and the TGI (K-562 leukemia) was 37.5 µM. It also gave a TGI (KM12 colon) of 30.5 µM, a TGI (LOX IMVI melanoma) of 30.9 µM and a TGI (M14 melanoma) of 31.7 µM. It also gave a TGI (MALME-3M melanoma) of 45.9 µM, a TGI (MCF7 breast) of 28.3 µM and a TGI (MDA-MB-231 breast) of 26.9 µM. The TGI (MDA-MB-435) was 26.5 µM, the TGI (MDA-N) was 34 µM and the TGI (MOLT-4 leukemia) was 31.9 µM. It also gave a TGI (NCI-H226 lung) of 29.2 µM, a TGI (NCI-H23 lung) of 36.1 µM and a TGI (NCI-H460 lung) of 29 µM. The TGI (NCI-H522 lung) was 41.4 µM, the TGI (NCI/ADR-RES ovarian) was 39.6 µM and the TGI (OVCAR-4 ovarian) was 37.6 µM. For the same compound, the TGI (OVCAR-5 ovarian) was 41.1 µM, the TGI (OVCAR-8 ovarian) was 37.5 µM and the TGI (PC-3 prostate) was 33.8 µM. For the same compound, the TGI (RPMI-8226 leukemia) was 38.9 µM, the TGI (RXF 393 renal) was 25.6 µM and the TGI (SF-268 CNS) was 38.3 µM. For the same compound, the TGI (SF-295 CNS) was 28.9 µM, the TGI (SF-539 CNS) was 31.2 µM and the TGI (SK-MEL-2 melanoma) was 37.1 µM. It also gave a TGI (SK-MEL-28 melanoma) of 40.9 µM, a TGI (SK-MEL-5 melanoma) of 30.6 µM and a TGI (SK-OV-3 ovarian) of 30.5 µM. It also gave a TGI (SN12C renal) of 36.3 µM, a TGI (SNB-19 CNS) of 41.2 µM and a TGI (SR leukemia) of 6.15 µM. For the same compound, the TGI (SW-620 colon) was 46.9 µM, the TGI (T-47D breast) was 55.8 µM and the TGI (TK-10 renal) was 23.4 µM. For the same compound, the TGI (U251 CNS) was 27.2 µM, the TGI (UACC-257 melanoma) was 48.1 µM and the TGI (UACC-62 melanoma) was 34.8 µM. It also gave a TGI (UO-31 renal) of 26.9 µM.
